Measurements taken from patent publication US4701455A, “Biopterin analogs” (Burroughs Wellcome Co., priority 1983, dated 1987).

Tests used:
Type in all cases: biochemical
[1] = tested on: Dihydropteridine reductase; test: Dihydropteridine reductase assay; settings: quinonoid dihydro form; relative to tetrahydrobiopterin form = 100
Description: Dihydropteridine reductase was assayed by the method of Craine, et al., (J. Biol. Chem., 247, 6082 (1972)).

[2] = target: T1, Phenylalanine hydroxylase (Rattus norvegicus, UniProt P04176); test: Phenylalanine hydroxylase cofactor assay; settings: rat liver enzyme; relative to tetrahydrobiopterin = 100
T1 construct: Phenylalanine hydroxylase was prepared from rat liver; from tissue; host or cells: rat liver
T1 sequence (P04176 1-453): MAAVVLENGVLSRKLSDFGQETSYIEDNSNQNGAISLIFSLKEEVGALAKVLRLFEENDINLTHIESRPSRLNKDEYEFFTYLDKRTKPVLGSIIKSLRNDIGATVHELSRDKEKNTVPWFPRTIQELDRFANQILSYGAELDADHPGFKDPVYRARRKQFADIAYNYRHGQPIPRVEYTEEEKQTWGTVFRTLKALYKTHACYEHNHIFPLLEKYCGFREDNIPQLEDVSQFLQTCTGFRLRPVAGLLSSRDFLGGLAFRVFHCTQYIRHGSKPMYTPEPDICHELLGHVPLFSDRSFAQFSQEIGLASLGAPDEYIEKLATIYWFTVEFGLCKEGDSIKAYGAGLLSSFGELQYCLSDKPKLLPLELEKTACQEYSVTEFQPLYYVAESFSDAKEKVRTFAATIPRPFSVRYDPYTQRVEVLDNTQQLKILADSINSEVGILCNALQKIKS
Description: Phenylalanine hydroxylase was measured as described in Shiman, R. et al., (J. Biol. Chem. 254: 11300 (1979)) except that the product of the reaction (tyrosine) was measured fluorometrically using the method of Waalkes, T. P. and Udenfriend, S. (J. Lab. Clin. Med. 50: 733 (1957). Phenylalanine hydroxylase was prepared from rat liver using hydrophobic chromatography (Shiman, R. et al. (J. Biol. Chem. 254: 11,300 (1979)). The specific activity of the enzyme, using BH4 as the co-factor, was 1.0 μmol/mg protein per minute at 37°.

Tyrosine hydroxylase = Tyrosine hydroxylase (Homo sapiens, UniProt P07101); test: Tyrosine hydroxylase cofactor assay; settings: relative to tetrahydrobiopterin = 100
Tyrosine hydroxylase, sequence (P07101 whole entry): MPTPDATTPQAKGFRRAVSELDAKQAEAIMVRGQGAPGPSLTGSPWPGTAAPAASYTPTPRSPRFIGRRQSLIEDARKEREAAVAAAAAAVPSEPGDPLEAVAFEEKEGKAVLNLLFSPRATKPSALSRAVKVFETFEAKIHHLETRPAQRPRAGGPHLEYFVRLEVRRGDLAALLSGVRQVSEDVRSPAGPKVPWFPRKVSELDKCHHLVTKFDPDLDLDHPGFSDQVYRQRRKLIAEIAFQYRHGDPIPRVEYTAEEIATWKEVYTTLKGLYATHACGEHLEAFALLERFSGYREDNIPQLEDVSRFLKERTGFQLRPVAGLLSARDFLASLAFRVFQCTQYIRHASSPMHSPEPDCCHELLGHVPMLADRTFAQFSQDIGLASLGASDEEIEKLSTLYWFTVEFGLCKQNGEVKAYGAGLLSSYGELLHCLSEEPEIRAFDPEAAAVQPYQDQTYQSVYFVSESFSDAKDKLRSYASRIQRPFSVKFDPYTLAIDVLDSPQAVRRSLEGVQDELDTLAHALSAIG
Description: Tyrosine hydroxylate was partially purified through a 25-45% ammonium sulfate fraction. […] The enzyme was assayed by a modification of the method of Nagatsu, T., Levitt, M., and Udenfriend, S. (Anal. Biochem. 9, 122, (1964)) where the Dowex chromatography step was replaced by a charcoal extraction.

bovine liver DHFR = target: T2, bovine liver DHFR (Bos taurus, UniProt P00376); test: Dihydrofolate reductase assay; settings: for Dihydrofolate reductase V: 7,8-dihydro form, relative to 7,8-dihydrobiopterin = 100, bovine liver DHFR
T2 construct: bovine liver DHFR; from tissue; host or cells: bovine liver
T2 sequence (P00376 1-187): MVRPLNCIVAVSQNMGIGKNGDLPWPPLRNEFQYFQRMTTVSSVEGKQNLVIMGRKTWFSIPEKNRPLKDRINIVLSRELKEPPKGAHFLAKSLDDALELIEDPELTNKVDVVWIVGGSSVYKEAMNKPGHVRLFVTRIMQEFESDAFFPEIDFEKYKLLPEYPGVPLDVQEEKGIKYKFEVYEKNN
Description: These assays were carried out on the 7,8-dihydropterin analogs of the compounds of formula I which was tetrahydropterins. The 7,8-dihydropterinswere obtained commercially (in the case of dihydrobiopterin) or synthesized from the corresponding compound of formula I. Synthesis of 7,8-dihydropterins involved the combination of 0.27 μmole of a compound of formula I, 20 μg of horseradish peroxidase, 0.6 μmole of hydrogen peroxide in 0.1 ml of 0.5M potassium phosphate buffer, pH 7.5. After 3 min at room temperature, 10 μg of bovine liver catalase was added. The production of the 7,8-dihydropterin was verified by U.V. spectroscopy.
The assay was carried out with bovine liver DHFR using a modification of the method of Bailey and Ayling (J. Biol. Chem., 253, 1598 (1978)) where the desired dihydropterin replaced dihydrobiopterin, and the HPLC system used consisted of an anaerobic 0.1M acetic acid (with or without 10% acetonitrite) solvent on a 25 cm×4.6 mm Dupont TMS-Zorbax column. In our hands, dihydrobiopterin is reduced at a rate 2.5% that of the natural substrate dihydrofolate.

Tryptophan hydroxylase = target: T3, Tryptophan hydroxylase (Rattus norvegicus, UniProt Q8CGU9); test: Tryptophan hydroxylase cofactor assay; settings: relative to tetrahydrobiopterin = 100
T3 construct: crude 30,000×g supernatant; from tissue
T3 sequence (Q8CGU9 1-485): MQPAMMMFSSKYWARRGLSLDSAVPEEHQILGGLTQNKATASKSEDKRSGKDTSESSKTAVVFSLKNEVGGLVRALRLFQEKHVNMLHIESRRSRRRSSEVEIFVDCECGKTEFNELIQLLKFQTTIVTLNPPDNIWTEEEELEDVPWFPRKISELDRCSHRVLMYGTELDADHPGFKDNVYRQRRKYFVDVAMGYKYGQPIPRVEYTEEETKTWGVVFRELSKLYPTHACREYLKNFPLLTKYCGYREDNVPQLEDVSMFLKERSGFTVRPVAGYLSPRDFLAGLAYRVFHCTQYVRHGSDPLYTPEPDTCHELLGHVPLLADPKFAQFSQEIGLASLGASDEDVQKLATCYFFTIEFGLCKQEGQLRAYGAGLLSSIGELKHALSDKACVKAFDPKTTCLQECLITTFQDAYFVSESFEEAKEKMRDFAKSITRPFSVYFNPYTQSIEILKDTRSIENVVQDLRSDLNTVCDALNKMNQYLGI
Description: Trytophan hydroxylase was assayed according to a modification of the method of Renson J., et al (Biochem. Biophys. Acta 25: 504 (1966)). The preparation of tryptophan hydroxylase was a crude 30,000×g supernatant which had been desalted on a Sephadex G-25 (Trade Name) column (Boadle-Biker, M.C., Biochem Pharmacol. 28: 2129 (1979).

| SMILES | Dihydropteridine reductase Vmax [1] | Phenylalanine hydroxylase Vmax [2] | Tyrosine hydroxylase Vmax (Tyrosine hydroxylase) | Dihydrofolate reductase V (bovine liver DHFR) | Tryptophan hydroxylase Vmax (Tryptophan hydroxylase) | Rate of reduction by DHFR relative to dihydrofolate (bovine liver DHFR; relative to natural substrate dihydrofolate) |
| --- | --- | --- | --- | --- | --- | --- |
| COCC1CNc2nc(N)[nH]c(=O)c2N1 (racemic) [6-Methoxymethyl-tetrahydropterin, (+-)-2-Amino-5,6,7,8-tetrahydro-6-methoxymethyl-4(3H)-pteridinone] | 295% | 79% | 124% | 800% | 54% | – |
| C[C@H](O)[C@H](O)C1=Nc2c(nc(N)[nH]c2=O)NC1 [7,8-Dihydrobiopterin] | – | – | – | – | – | 2.5% |
| C[C@H](O)[C@H](O)[C@H]1CNc2nc(N)[nH]c(=O)c2N1 [Tetrahydrobiopterin] | 100% | 100% | 100% | 100% | 100% | – |
